# Patent US12459951B2, “Compounds that interact with RAS superfamily proteins for treatment of cancers, inflammatory diseases, rasopathies, and fibrotic disease” (SHY Therapeutics, LLC, priority 2022, dated 2025)
# How the values were obtained:
# [1] = system: Akt phosphorylation; test: Akt Phosphorylation Assay (western blot), Panc-1; assay type: cell-based, human; conditions: at 10 μM, * = activation
# In short: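 Panc-1 (KRas G12D) cells were treated with compound at 10 μM final (0.3% DMSO) for 6 h at 37 °C, or with serial dilutions for IC50. Cells were either serum-starved overnight in 0.5% FBS and then stimulated with 1.5 ng/ml EGF for 15 min, or kept in 10% FBS without stimulation. Akt Ser473 phosphorylation in lysates was read by western blot.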
# [2] = system: TNF-alpha; test: TNF-alpha Quantification Assay (ELISA), LPS-stimulated RAW 264.7; assay type: cell-based; conditions: Mus musculus, RAW264.7; at 10 μM; read-out: TNFα: % inh.
# [3] = system: KRas G12D mutant; test: Ras GTP Binding Domain Inhibition Assay (Ras Superfamily Assay); conditions: 20 μM compound; for KRas G12D mutant + SOS: % inh.: with SOS; for KRas G12D mutant: % inh.: without SOS
# In short: (§1)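 Binding of 100 nM fluorescent GTP (Cy3 or Cy5, 45 min, room temperature) was read after washes from plate-captured His-tagged protein. Beforehand, compounds at 20 μM or in dilution series for IC50 sat 3 h on the protein in Tris buffer pH 7.4 or 7.0 with 1% DMSO, Sos GEF optionally added for the last hour.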
# [4] = system: KRas wild type; test: as above; conditions: 20 μM compound; for KRas wild type + SOS: % inh.: with SOS; for KRas wild type: % inh.: without SOS
# In short: as §1
# [5] = target: T1, Rac-1 (Homo sapiens, UniProt P63000); test: as above; conditions: read-out: Rac-1: % inh.
# T1 construct: made in house
# In short: as §1
KRas G12D mutant + SOS: % inh. [3],KRas G12D mutant: % inh. [3],KRas wild type + SOS: % inh. [4],KRas wild type: % inh. [4],inhibition at 20 µM [5] [%],SMILES,% inh of Akt phosphorylation in Panc-1 [1],inhibition at 10 µM [2] [%]
B (B = 26-49% inhibition),D (D = 76-100% inhibition),C (C = 50-75% inhibition),C (C = 50-75% inhibition),76 to 100,"Cc1c(-c2ccn(C(C)C)n2)cn2nc(-c3nccn3C)nc(Nc3cnn(C(C)C)n3)c12 [Compound 77, 6-(1-Isopropyl-1H-pyrazol-3-yl)-N-(2-isopropyl-2H-1,2,3-triazol-4-yl)-5-methyl-2-(1-methyl-1H-imidazol-2-yl)pyrrolo[2,1-f][1,2,4]triazin-4-amine]",D* (85-100% activation),25 to 49
D (D = 76-100% inhibition),D (D = 76-100% inhibition),D (D = 76-100% inhibition),D (D = 76-100% inhibition),76 to 100,"Cc1c(-c2ccn(C(C)C)n2)cn2nc(-c3nccn3C)nc(Nc3cn(C(C)C)nn3)c12 [Compound 78, N-(1-Isopropyl-1H-1,2,3-triazol-4-yl)-6-(1-isopropyl-1H-pyrazol-3-yl)-5-methyl-2-(1-methyl-1H-imidazol-2-yl)pyrrolo[2,1-f][1,2,4]triazin-4-amine]",D* (85-100% activation),25 to 49
C (C = 50-75% inhibition),D (D = 76-100% inhibition),B (B = 26-49% inhibition),C (C = 50-75% inhibition),76 to 100,"COCc1csc(Nc2nc(-c3nccn3C)nn3cc(-c4ccn(C(C)C)n4)c(C)c23)n1 [Compound 79, N-(6-(1-Isopropyl-1H-pyrazol-3-yl)-5-methyl-2-(1-methyl-1H-imidazol-2-yl)pyrrolo[2,1-f][1,2,4]triazin-4-yl)-4-(methoxymethyl)thiazol-2-amine]",D* (85-100% activation),25 to 49
0 (0 = 0% inhibition),A (A = 1-25% inhibition),A (A = 1-25% inhibition),A (A = 1-25% inhibition),1 to 25,"COc1ncc(Nc2nc(-c3nccn3C)nn3cc(-c4ccn(C(C)C)n4)c(C)c23)cn1 [Compound 80, 6-(1-Isopropyl-1H-pyrazol-3-yl)-N-(2-methoxypyrimidin-5-yl)-5-methyl-2-(1-methyl-1H-imidazol-2-yl)pyrrolo[2,1-f][1,2,4]triazin-4-amine]",D* (85-100% activation),0
C (C = 50-75% inhibition),D (D = 76-100% inhibition),B (B = 26-49% inhibition),C (C = 50-75% inhibition),76 to 100,"Cc1c(-c2ccn(C(C)C)n2)cn2nc(-c3nccn3C)nc(Nc3nnc(C4CC4)[nH]3)c12 [Compound 81, N-(5-Cyclopropyl-4H-1,2,4-triazol-3-yl)-6-(1-isopropyl-1H-pyrazol-3-yl)-5-methyl-2-(1-methyl-1H-imidazol-2-yl)pyrrolo[2,1-f][1,2,4]triazin-4-amine]",D* (85-100% activation),50 to 74
B (B = 26-49% inhibition),C (C = 50-75% inhibition),0 (0 = 0% inhibition),C (C = 50-75% inhibition),26 to 49,"COCc1noc(Nc2nc(-c3nccn3C)nn3cc(-c4ccn(C(C)C)n4)c(C)c23)n1 [Compound 82, N-(6-(1-Isopropyl-1H-pyrazol-3-yl)-5-methyl-2-(1-methyl-1H-imidazol-2-yl)pyrrolo[2,1-f][1,2,4]triazin-4-yl)-3-(methoxymethyl)-1,2,4-oxadiazol-5-amine]",D* (85-100% activation),25 to 49
D (D = 76-100% inhibition),D (D = 76-100% inhibition),C (C = 50-75% inhibition),D (D = 76-100% inhibition),76 to 100,"COc1cnc(Nc2nc(-c3nccn3C)nn3cc(-c4ccn(C(C)C)n4)c(C)c23)cn1 [Compound 83, 6-(1-Isopropyl-1H-pyrazol-3-yl)-N-(5-methoxypyrazin-2-yl)-5-methyl-2-(1-methyl-1H-imidazol-2-yl)pyrrolo[2,1-f][1,2,4]triazin-4-amine]",D* (85-100% activation),1 to 24
A (A = 1-25% inhibition),0 (0 = 0% inhibition),0 (0 = 0% inhibition),0 (0 = 0% inhibition),0,"COc1ncccc1Nc1nc(-c2nccn2C)nn2cc(-c3ccn(C(C)C)n3)c(C)c12 [Compound 85, 6-(1-Isopropyl-1H-pyrazol-3-yl)-N-(2-methoxypyridin-3-yl)-5-methyl-2-(1-methyl-1H-imidazol-2-yl)pyrrolo[2,1-f][1,2,4]triazin-4-amine]",D* (85-100% activation),50 to 74
C (C = 50-75% inhibition),A (A = 1-25% inhibition),0 (0 = 0% inhibition),B (B = 26-49% inhibition),50 to 75,"COc1nccc(Nc2nc(-c3nccn3C)nn3cc(-c4ccn(C(C)C)n4)c(C)c23)n1 [Compound 86, 6-(1-Isopropyl-1H-pyrazol-3-yl)-N-(2-methoxypyrimidin-4-yl)-5-methyl-2-(1-methyl-1H-imidazol-2-yl)pyrrolo[2,1-f][1,2,4]triazin-4-amine]",D* (85-100% activation),1 to 24
A (A = 1-25% inhibition),A (A = 1-25% inhibition),0 (0 = 0% inhibition),0 (0 = 0% inhibition),0,"COc1cc(Nc2nc(-c3nccn3C)nn3cc(-c4ccn(C(C)C)n4)c(C)c23)ccn1 [Compound 87, 6-(1-Isopropyl-1H-pyrazol-3-yl)-N-(2-methoxypyridin-4-yl)-5-methyl-2-(1-methyl-1H-imidazol-2-yl)pyrrolo[2,1-f][1,2,4]triazin-4-amine]",D* (85-100% activation),0
A (A = 1-25% inhibition),A (A = 1-25% inhibition),0 (0 = 0% inhibition),0 (0 = 0% inhibition),1 to 25,"COc1ncncc1Nc1nc(-c2nccn2C)nn2cc(-c3ccn(C(C)C)n3)c(C)c12 [Compound 88, 6-(1-Isopropyl-1H-pyrazol-3-yl)-N-(4-methoxypyrimidin-5-yl)-5-methyl-2-(1-methyl-1H-imidazol-2-yl)pyrrolo[2,1-f][1,2,4]triazin-4-amine]",D* (85-100% activation),1 to 24
D (D = 76-100% inhibition),D (D = 76-100% inhibition),D (D = 76-100% inhibition),D (D = 76-100% inhibition),76 to 100,"COc1cccnc1Nc1nc(-c2nccn2C)nn2cc(-c3ccn(C(C)C)n3)c(C)c12 [Compound 89, 6-(1-Isopropyl-1H-pyrazol-3-yl)-N-(3-methoxypyridin-2-yl)-5-methyl-2-(1-methyl-1H-imidazol-2-yl)pyrrolo[2,1-f][1,2,4]triazin-4-amine]",D* (85-100% activation),25 to 49
A (A = 1-25% inhibition),0 (0 = 0% inhibition),0 (0 = 0% inhibition),B (B = 26-49% inhibition),76 to 100,"Cc1c(-c2ccn(C(C)C)n2)cn2nc(-c3nccn3C)nc(Nc3ncc(C4CC4)o3)c12 [Compound 90, 5-Cyclopropyl-N-(6-(1-isopropyl-1H-pyrazol-3-yl)-5-methyl-2-(1-methyl-1H-imidazol-2-yl)pyrrolo[2,1-f][1,2,4]triazin-4-yl)oxazol-2-amine]",A* (1-25% activation),1 to 24
D (D = 76-100% inhibition),D (D = 76-100% inhibition),C (C = 50-75% inhibition),D (D = 76-100% inhibition),76 to 100,"Cc1c(-c2ccn(C(C)C)n2)cn2nc(-c3nccn3C)nc(Nc3cc4n(n3)CCO4)c12 [Compound 91, N-(6-(1-Isopropyl-1H-pyrazol-3-yl)-5-methyl-2-(1-methyl-1H-imidazol-2-yl)pyrrolo[2,1-f][1,2,4]triazin-4-yl)-2,3-dihydropyrazolo[5,1-b]oxazol-6-amine]",D* (85-100% activation),1 to 24
